Test results reported in patent publication US7759071B2, “Determination of apoptotic products in tumor patients undergoing therapy” (Roche Diagnostics, priority 1998, dated 2010).

Tests used:
[1] = tested on: metastasising pancreatic carcinoma; experiment: Nucleosome concentration in serum (Cell Death Detection plus ELISA) of a patient during chemotherapy; type: in vivo; settings: one patient, FIG. 9; for nucleosome concentration in the serum after start of new therapy scheme: combination folic acid 300 mg/m^2 and 5-fluorouracil 500 mg/m^2 on each of days 1 to 5, only a partial decrease afterwards; for nucleosome concentration in the serum at the beginning of a cycle: combination Gemcitabine 1000 mg/m^2 (day 1, 8, 15) and Cisplatin 50 mg/m^2 (day 1, 15), then decreased slowly
Description: The Cell Death Detection^plus ELISA (Boehringer Mannheim, Cat. No. 1 774 425) is based on the quantitative sandwich enzyme immunoassay principle. Two monoclonal mouse antibodies are used which are directed against DNA and histones. The test can be carried out with cytoplasmic lysates, culture supernatants, plasma, serum and other body fluids and allows a specific detection of mononucleosomes and oligonucleosomes. The description given here applies to measurements in liquid media:
A 20 μl aliquot of the material to be tested is pipetted into a well of a streptavidin-coated microtitre plate (MTP). 80 μl of an immunoreagent composed of biotinylated anti-histone antibodies, peroxidase-labelled anti-DNA antibodies and incubation buffer (1% BSA, 0.5% Tween, 1 mM EDTA in PBS) is added, covered with an adhesive foil and incubated for 2 hours on a MTP shaker (500 rpm). During this incubation period the anti-histone antibody reacts with the histone component of the nucleosomes and immobilizes the complex via the biotin on the streptavidin-coated microtitre plate. In addition the anti-DNA antibody binds to the DNA component of the nucleosomes. In this process ds as well as ss DNA is recognized. After removing the antibody that is still unbound by washing three times with 300-400 μl incubation buffer in each case, the immobilized complexes are incubated with 100 μl ABTS (2,2′-azino-di(3-ethyl-benzthiazoline sulfonate), the MTP is sealed with an adhesive foil and shaken at 250 rpm. The substrate reacts with the peroxidase label of the anti-DNA antibody and causes a colour change that is proportional to these antibodies. After an adequate colour development period it is photometrically quantified at d=405 nm against the substrate solution as a blank (reference wavelength d=492 nm).
Therefore absolute concentration data are not used and a scale of so-called AUs (arbitrary units) is introduced. 1000 AU equates with the highest standard level (2500 mA after 30 min); the scale is linear. This therefore takes into account the lack of knowledge about the ratio of mononucleosomes to oligonucleosomes and the resulting variability concerning the amount of binding sites of the antibodies while at the same time increasing the comparability between the tests.
After thawing attention must be paid to adjustment to room temperature and careful homogenization of the sample material. The serum samples are diluted 1:4 with incubation buffer (20 μl serum, 60 μl incubation buffer) and subsequently used in the test.
The nucleosome content was measured in patients under chemotherapy before therapy and on the second and fourth day and one week after administration of the first dose and in addition weekly or before the start of the next treatment cycle.

[2] = tested on: metastasising pancreatic carcinoma; experiment: Clinical course of the patient during chemotherapy; type: in vivo; settings: one patient, FIG. 9
From the text: The effectiveness of tumour therapy can be determined by means of the remission rate on the basis of image generating processes (X-ray, computer tomography). By definition a complete remission is understood as the complete disappearance of the tumour for at least eight weeks and partial remission means a regression of the tumour manifestations by more than 50% with regard to their volume; no change reflects the state between a 50% decrease and a 25% increase of the tumour mass; progression denotes a progression of more than 25% (UICC criteria).

[3] = combination folic acid and 5-fluorouracil, continuous increase of CEA
[4] = combination Gemcitabine and Cisplatin

SMILES: O=c1[nH]cc(F)c(=O)[nH]1 [5-fluorouracil]
- nucleosome concentration in the serum after start of new therapy scheme [1]: rapid increase
- clinical course under therapy [2, 3]: progressive course

SMILES: Nc1nc2ncc(CNc3ccc(C(=O)N[C@@H](CCC(=O)O)C(=O)O)cc3)nc2c(=O)[nH]1 [folic acid]
- nucleosome concentration in the serum after start of new therapy scheme [1]: rapid increase
- clinical course under therapy [2, 3]: progressive course

SMILES: Nc1ccn([C@@H]2O[C@H](CO)[C@@H](O)C2(F)F)c(=O)n1 [Gemcitabine]
- nucleosome concentration in the serum at the beginning of a cycle [1]: increased rapidly
- clinical course under therapy [2, 4]: clinical progressive deterioration

SMILES: N.N.[Cl][Pt][Cl] [Cisplatin]
- nucleosome concentration in the serum at the beginning of a cycle [1]: increased rapidly
- clinical course under therapy [2, 4]: clinical progressive deterioration
